According to US9170257B2 (priority 2012, dated 2015):
Like-named read-outs stand apart in the source and are kept apart here.

Assay: Tissue distribution of curcumin and THC at necropsy 15 minutes post-infusion
Design: species or system Beagle dogs
Details: both sexes, beagle, dog, in vivo, 10 mg/kg; for Kp at 8 h: 8 hr infusion
Procedure: The test article will be administered to 8 Beagle dogs by intravenous infusion over two hours (Part A) or eight hours (Part B) as shown in Table 6.
Multiple samples of tissue weighing approximately 1 gram were removed and snap frozen in the presence or absence of phosphoric acid (H3PO4). For all tissue samples, the levels of curcumin and THC were determined using a method developed by the Bioanalytical Department at Nucro-Technics. […] Values that were below the limit of quantification were assigned a value of 0. […] Tissue distribution data was analyzed using, unless stated, the data from 4 dogs and are presented as the mean±standard error (S.E.).

COc1cc(CCC(=O)CC(=O)CCc2ccc(O)c(OC)c2)ccc1O [THC, tetrahydrocurcumin]
Kp at 8 h (H3PO4 stabilized, read-out: Kp [tissue]/[plasma], Striatum): 0.03
Kp at 8 h (H3PO4 stabilized, read-out: Kp [tissue]/[plasma], Urinary Bladder): 0.0106
concentration at 15 min (Average tissue concentration, Intestinal wall, Eight hour infusion, H3PO4 stabilized): 0.09 ng/g
concentration at 15 min (Average tissue concentration, Intestinal wall, Two hour infusion, H3PO4 stabilized): 2.11 ng/g
concentration at 15 min (Eight hour infusion, H3PO4 stabilized, read-out: Average tissue concentration, Bladder): 1.11 ng/g
concentration at 15 min (Eight hour infusion, H3PO4 stabilized, read-out: Average tissue concentration, Brainstem): 3.02 ng/g
concentration at 15 min (Eight hour infusion, H3PO4 stabilized, read-out: Average tissue concentration, Cortex): 0.49 ng/g
concentration at 15 min (Eight hour infusion, H3PO4 stabilized, read-out: Average tissue concentration, Heart): 0.03 ng/g
concentration at 15 min (Eight hour infusion, H3PO4 stabilized, read-out: Average tissue concentration, Hippocampus): 1.12 ng/g
concentration at 15 min (Eight hour infusion, H3PO4 stabilized, read-out: Average tissue concentration, Kidney): 2.03 ng/g
concentration at 15 min (Eight hour infusion, H3PO4 stabilized, read-out: Average tissue concentration, Liver): 2.24 ng/g
concentration at 15 min (Eight hour infusion, H3PO4 stabilized, read-out: Average tissue concentration, Lung): 6.36 ng/g
concentration at 15 min (Eight hour infusion, H3PO4 stabilized, read-out: Average tissue concentration, Muscle): 2.42 ng/g
concentration at 15 min (Eight hour infusion, H3PO4 stabilized, read-out: Average tissue concentration, Pancreas): 1.34 ng/g
concentration at 15 min (Eight hour infusion, H3PO4 stabilized, read-out: Average tissue concentration, Spleen): 0.42 ng/g
concentration at 15 min (Eight hour infusion, H3PO4 stabilized, read-out: Average tissue concentration, Striatum): 3.13 ng/g
Kp at 2 h (Kp [tissue]/[plasma], Intestinal Wall, 2 hr infusion, H3PO4 stabilized): 0.0003
Kp at 8 h (Kp [tissue]/[plasma], Intestinal Wall, H3PO4 stabilized): 0.002
concentration at 15 min (Table 14, 2 hour infusion, +H3PO4, read-out: Tissue analysis, Brainstem): 10.6 ng/g
concentration at 15 min (Table 14, 2 hour infusion, +H3PO4, read-out: Tissue analysis, Cortex): 3.08 ng/g
concentration at 15 min (Table 14, 2 hour infusion, +H3PO4, read-out: Tissue analysis, Hippocampus): 6.46 ng/g
concentration at 15 min (Table 14, 2 hour infusion, +H3PO4, read-out: Tissue analysis, Liver): 4.58 ng/g
concentration at 15 min (Table 14, 2 hour infusion, +H3PO4, read-out: Tissue analysis, Lung): 9.37 ng/g
concentration at 15 min (Table 14, 2 hour infusion, +H3PO4, read-out: Tissue analysis, Pancreas): 0.91 ng/g
concentration at 15 min (Table 14, 2 hour infusion, +H3PO4, read-out: Tissue analysis, Spleen): 1.6 ng/g
concentration at 15 min (Table 14, 2 hour infusion, +H3PO4, read-out: Tissue analysis, Striatum): 11.1 ng/g
concentration at 15 min (Table 14, 2 hour infusion, −H3PO4, read-out: Tissue analysis, Brainstem): 2.33 ng/g
concentration at 15 min (Table 14, 2 hour infusion, −H3PO4, read-out: Tissue analysis, Cortex): 0.67 ng/g
concentration at 15 min (Table 14, 2 hour infusion, −H3PO4, read-out: Tissue analysis, Hippocampus): 0.75 ng/g
concentration at 15 min (Table 14, 2 hour infusion, −H3PO4, read-out: Tissue analysis, Liver): 2.41 ng/g
concentration at 15 min (Table 14, 2 hour infusion, −H3PO4, read-out: Tissue analysis, Lung): 17.7 ng/g
concentration at 15 min (Table 14, 2 hour infusion, −H3PO4, read-out: Tissue analysis, Pancreas): 2.01 ng/g
concentration at 15 min (Table 14, 2 hour infusion, −H3PO4, read-out: Tissue analysis, Spleen): 1.35 ng/g
concentration at 15 min (Table 14, 2 hour infusion, −H3PO4, read-out: Tissue analysis, Striatum): 6.21 ng/g
concentration at 15 min (Table 15, 2 hour infusion, +H3PO4, read-out: Tissue analysis, Brainstem): 3.02 ng/g
concentration at 15 min (Table 15, 2 hour infusion, +H3PO4, read-out: Tissue analysis, Cortex): 0.49 ng/g
concentration at 15 min (Table 15, 2 hour infusion, +H3PO4, read-out: Tissue analysis, Hippocampus): 1.12 ng/g
concentration at 15 min post-infusion (Table 15, 2 hour infusion, +H3PO4, read-out: Tissue analysis, Liver): 2.24 ng/g
concentration at 15 min (Table 15, 2 hour infusion, +H3PO4, read-out: Tissue analysis, Lung): 6.36 ng/g
concentration at 15 min (Table 15, 2 hour infusion, +H3PO4, read-out: Tissue analysis, Pancreas): 1.34 ng/g
concentration at 15 min post-infusion (Table 15, 2 hour infusion, +H3PO4, read-out: Tissue analysis, Spleen): 0.42 ng/g
concentration at 15 min (Table 15, 2 hour infusion, +H3PO4, read-out: Tissue analysis, Striatum): 3.13 ng/g
concentration at 15 min (Table 15, 2 hour infusion, −H3PO4, read-out: Tissue analysis, Brainstem): 0.83 ng/g
concentration at 15 min (Table 15, 2 hour infusion, −H3PO4, read-out: Tissue analysis, Cortex): 0.12 ng/g
concentration at 15 min (Table 15, 2 hour infusion, −H3PO4, read-out: Tissue analysis, Hippocampus): 0.01 ng/g
concentration at 15 min post-infusion (Table 15, 2 hour infusion, −H3PO4, read-out: Tissue analysis, Liver): 2.63 ng/g
concentration at 15 min (Table 15, 2 hour infusion, −H3PO4, read-out: Tissue analysis, Lung): 10.8 ng/g
concentration at 15 min (Table 15, 2 hour infusion, −H3PO4, read-out: Tissue analysis, Pancreas): 0.33 ng/g
concentration at 15 min post-infusion (Table 15, 2 hour infusion, −H3PO4, read-out: Tissue analysis, Spleen): 0.32 ng/g
concentration at 15 min (Table 15, 2 hour infusion, −H3PO4, read-out: Tissue analysis, Striatum): 1.12 ng/g
concentration at 15 min (Tissue level, Intestinal Wall, 2 hour infusion, No H3PO4): 0.73 ng/g
concentration at 15 min (Tissue level, Intestinal Wall, 2 hour infusion, Plus H3PO4): 2.12 ng/g
concentration at 15 min (Tissue level, Intestinal Wall, 8 hour infusion, No H3PO4): 0.31 ng/g
concentration at 15 min (Tissue level, Intestinal Wall, 8 hour infusion, Plus H3PO4): 0.21 ng/g
concentration at 15 min (Two hour infusion, H3PO4 stabilized, read-out: Average tissue concentration, Bladder): 2.25 ng/g
concentration at 15 min (Two hour infusion, H3PO4 stabilized, read-out: Average tissue concentration, Brainstem): 10.6 ng/g
concentration at 15 min (Two hour infusion, H3PO4 stabilized, read-out: Average tissue concentration, Cortex): 3.08 ng/g
concentration at 15 min (Two hour infusion, H3PO4 stabilized, read-out: Average tissue concentration, Heart): 0.68 ng/g
concentration at 15 min (Two hour infusion, H3PO4 stabilized, read-out: Average tissue concentration, Hippocampus): 6.46 ng/g
concentration at 15 min (Two hour infusion, H3PO4 stabilized, read-out: Average tissue concentration, Kidney): 4.25 ng/g
concentration at 15 min (Two hour infusion, H3PO4 stabilized, read-out: Average tissue concentration, Liver): 4.58 ng/g
concentration at 15 min (Two hour infusion, H3PO4 stabilized, read-out: Average tissue concentration, Lung): 9.37 ng/g
concentration at 15 min (Two hour infusion, H3PO4 stabilized, read-out: Average tissue concentration, Muscle): 4.19 ng/g
concentration at 15 min (Two hour infusion, H3PO4 stabilized, read-out: Average tissue concentration, Pancreas): 0.91 ng/g
concentration at 15 min (Two hour infusion, H3PO4 stabilized, read-out: Average tissue concentration, Spleen): 1.6 ng/g
concentration at 15 min (Two hour infusion, H3PO4 stabilized, read-out: Average tissue concentration, Striatum): 11.1 ng/g
